Broadly, the inhibition is the change of the read-out against control, counted positive when it falls.

This assay concerns the target T1, purified human HDAC6 (Homo sapiens, UniProt Q9UBN7).
T1 construct: purchased BPS Bioscience 5006
T1 sequence (Q9UBN7 1-1215): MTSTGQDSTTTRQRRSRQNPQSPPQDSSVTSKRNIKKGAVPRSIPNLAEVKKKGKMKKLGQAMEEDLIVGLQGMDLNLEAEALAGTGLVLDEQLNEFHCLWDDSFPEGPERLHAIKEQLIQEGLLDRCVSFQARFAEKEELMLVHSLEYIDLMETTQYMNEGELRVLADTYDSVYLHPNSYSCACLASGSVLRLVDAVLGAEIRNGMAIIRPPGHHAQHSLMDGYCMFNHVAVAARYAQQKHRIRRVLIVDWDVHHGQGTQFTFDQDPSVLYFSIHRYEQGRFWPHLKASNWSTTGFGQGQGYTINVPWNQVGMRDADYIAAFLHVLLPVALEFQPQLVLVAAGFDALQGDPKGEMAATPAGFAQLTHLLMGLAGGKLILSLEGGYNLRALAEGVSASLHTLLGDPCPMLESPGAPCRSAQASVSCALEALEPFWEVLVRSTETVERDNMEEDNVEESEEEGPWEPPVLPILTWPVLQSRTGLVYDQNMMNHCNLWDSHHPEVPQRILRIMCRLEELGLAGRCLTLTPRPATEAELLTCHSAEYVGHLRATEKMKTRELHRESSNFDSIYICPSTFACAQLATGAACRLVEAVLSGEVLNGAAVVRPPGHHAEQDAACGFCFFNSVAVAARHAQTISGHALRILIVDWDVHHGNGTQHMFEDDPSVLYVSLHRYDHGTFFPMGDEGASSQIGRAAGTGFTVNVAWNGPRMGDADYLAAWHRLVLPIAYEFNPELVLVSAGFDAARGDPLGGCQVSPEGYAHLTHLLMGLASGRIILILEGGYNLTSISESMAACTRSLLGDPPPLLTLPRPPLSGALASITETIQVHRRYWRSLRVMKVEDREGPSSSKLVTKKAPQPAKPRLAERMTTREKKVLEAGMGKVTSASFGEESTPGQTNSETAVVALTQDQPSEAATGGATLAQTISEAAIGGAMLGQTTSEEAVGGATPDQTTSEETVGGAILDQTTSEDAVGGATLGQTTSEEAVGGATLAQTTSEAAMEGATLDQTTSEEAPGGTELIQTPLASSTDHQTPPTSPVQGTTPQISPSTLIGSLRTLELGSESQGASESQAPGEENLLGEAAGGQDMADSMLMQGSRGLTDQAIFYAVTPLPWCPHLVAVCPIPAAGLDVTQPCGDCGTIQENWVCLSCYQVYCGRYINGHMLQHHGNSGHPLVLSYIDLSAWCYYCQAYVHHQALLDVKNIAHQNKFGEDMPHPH
As to the kind of experiment: HDAC6 Enzyme Assay. The note with it: read-out: Percent Inhibition; for inhibition at 0.412 µM: compound concentration 0.412 μM; for inhibition at 0.37 µM: compound concentration 0.37 μM. Type of assay: biochemical. The procedure, abridged:
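Readout is AMC fluorescence (Ex 340 nm, Em 460 nm) after trypsin cleavage of the deacetylated Ac-Arg-Gly-Lys(Ac)-AMC product. Reaction: purified human HDAC6, compound or vehicle, 1 hour, 30° C, quenched by trichostatin A. Single-concentration percent inhibition or IC50 calculated versus DMSO-treated samples.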

Consider `CCC(C)Cn1ccc2ccc(C(=O)NO)cc2c1=O` (stereo not shown) [Compound I-255, N-hydroxy-2-(2-methylbutyl)-1-oxo-1,2-dihydroisoquinoline-7-carboxamide], for which the inhibition at 0.412 µM amounted to 85.6%.

In the case of `CC(C)n1cnc2cc(C(=O)NO)ccc2c1=O` [Compound I-256, N-hydroxy-3-isopropyl-4-oxo-3,4-dihydroquinazoline-7-carboxamide], the inhibition at 0.412 µM amounted to 72%.

Take `COc1ccc(OCCn2ccc3ccc(C(=O)NO)cc3c2=O)cc1` [Compound I-257, N-hydroxy-2-[2-(4-methoxyphenoxy)ethyl]-1-oxo-1,2-dihydroisoquinoline-7-carboxamide]: the inhibition at 0.412 µM is 96.8%.

Consider `O=C(NO)c1ccc2ccn(CCOc3cccc(OCc4ccccc4)c3)c(=O)c2c1` [Compound I-258, 2-{2-[3-(benzyloxy)phenoxy]ethyl}-N-hydroxy-1-oxo-1,2-dihydroisoquinoline-7-carboxamide], for which the inhibition at 0.412 µM is 93.9%.

With `Cc1onc(-c2ccccc2)c1Cn1ccc2ccc(C(=O)NO)cc2c1=O` [Compound I-259, N-hydroxy-2-[(5-methyl-3-phenylisoxazol-4-yl)methyl]-1-oxo-1,2-dihydroisoquinoline-7-carboxamide], the inhibition at 0.412 µM came out at 96.1%.

Turning to `O=C(NO)c1ccc2c(=O)[nH]c(-c3cccc(C(F)(F)F)c3)nc2c1` [Compound I-260, N-hydroxy-4-oxo-2-[3-(trifluoromethyl)phenyl]-3,4-dihydroquinazoline-7-carboxamide], the inhibition at 0.412 µM came out at 73.2%.

As to `O=C(NO)c1ccc2ccn(CC3CC3)c(=O)c2c1` [Compound I-261, 2-(cyclopropylmethyl)-N-hydroxy-1-oxo-1,2-dihydroisoquinoline-7-carboxamide], the inhibition at 0.412 µM is 87.5%.

On to `O=C(NO)c1ccc2c(=O)n(-c3ccc(Cl)cc3)c(NCc3ccc(Cl)cc3)nc2c1` [Compound I-262, 2-[(4-chlorobenzyl)amino]-3-(4-chlorophenyl)-N-hydroxy-4-oxo-3,4-dihydroquinazoline-7-carboxamide], for which the inhibition at 0.412 µM is 68.2%.

Turning to `O=C(NO)c1ccc2c(=O)n(CCc3ccccn3)c(-c3ccccc3)nc2c1` [Compound I-263, N-hydroxy-4-oxo-2-phenyl-3-(2-pyridin-2-ylethyl)-3,4-dihydroquinazoline-7-carboxamide], the inhibition at 0.412 µM is 91.1%.

For the molecule `O=C(NO)c1ccc2[nH]c(=O)n(Cc3ccccc3)c(=O)c2c1` [Compound I-264, 3-benzyl-N-hydroxy-2,4-dioxo-1,2,3,4-tetrahydroquinazoline-6-carboxamide], the inhibition at 0.412 µM is 93%.

Take `Cc1ccc(OCc2nc3cc(C(=O)NO)ccc3c(=O)[nH]2)cc1` [Compound I-265, N-hydroxy-2-[(4-methylphenoxy)methyl]-4-oxo-3,4-dihydroquinazoline-7-carboxamide]: the inhibition at 0.412 µM is 81.3%.

As for `CC(C)(C)OC(=O)Nc1cccc(Cn2ccc3ccc(C(=O)NO)cc3c2=O)c1` [Compound I-266, tert-butyl (3-{[7-[(hydroxyamino)carbonyl]-1-oxoisoquinolin-2(1H)-yl]methyl}phenyl)carbamate], the inhibition at 0.412 µM amounted to 87.9%.

For `CC(C)(C)c1ccc(Cn2ccc3ccc(C(=O)NO)cc3c2=O)cc1` [Compound I-267, 2-(4-tert-butylbenzyl)-N-hydroxy-1-oxo-1,2-dihydroisoquinoline-7-carboxamide], the inhibition at 0.412 µM is 94.8%.

Turning to `O=C(NO)c1ccc2ncn(Cc3cccc(-c4cc5ccccc5s4)c3)c(=O)c2c1` [Compound I-268, 3-[3-(1-benzothien-2-yl)benzyl]-N-hydroxy-4-oxo-3,4-dihydroquinazoline-6-carboxamide], the inhibition at 0.37 µM is 93.2%.

In the case of `O=C(NO)c1ccc2ccn(CCCn3cccc3)c(=O)c2c1` [Compound I-269, N-hydroxy-1-oxo-2-[3-(1H-pyrrol-1-yl)propyl]-1,2-dihydroisoquinoline-7-carboxamide], the inhibition at 0.412 µM is 94.5%.

With `O=C(NO)c1ccc2ccn(CCOc3ccc(OCc4ccccc4)cc3)c(=O)c2c1` [Compound I-270, 2-{2-[4-(benzyloxy)phenoxy]ethyl}-N-hydroxy-1-oxo-1,2-dihydroisoquinoline-7-carboxamide], the inhibition at 0.412 µM came to 83.4%.

Take `O=C(NO)c1ccc2ccn(CCOc3ccc(-n4ccnc4)cc3)c(=O)c2c1` [Compound I-271, N-hydroxy-2-{2-[4-(1H-imidazol-1-yl)phenoxy]ethyl}-1-oxo-1,2-dihydroisoquinoline-7-carboxamide]: the inhibition at 0.412 µM is 96.9%.

As to `O=C(NO)c1ccc2ccn(Cc3nc4ccccc4s3)c(=O)c2c1` [Compound I-272, 2-(1,3-benzothiazol-2-ylmethyl)-N-hydroxy-1-oxo-1,2-dihydroisoquinoline-7-carboxamide], the inhibition at 0.412 µM was determined as 97.5%.

For `O=C(Cn1cnc2ccc(C(=O)NO)cc2c1=O)c1ccc(N2CCCC2)cc1` [Compound I-273, N-hydroxy-4-oxo-3-[2-oxo-2-(4-pyrrolidin-1-ylphenyl)ethyl]-3,4-dihydroquinazoline-6-carboxamide], the inhibition at 0.412 µM is 85.1%.

`CN(C)c1ccc(-c2nc3cc(C(=O)NO)ccc3c(=O)n2Cc2ccc(C(F)(F)F)cc2)cc1` [Compound I-274, 2-[4-(dimethylamino)phenyl]-N-hydroxy-4-oxo-3-[4-(trifluoromethyl)benzyl]-3,4-dihydroquinazoline-7-carboxamide]: the inhibition at 0.37 µM came to 78.8%.

Regarding `CC(C)CCCn1cnc2cc(C(=O)NO)ccc2c1=O` [Compound I-275, N-hydroxy-3-(4-methylpentyl)-4-oxo-3,4-dihydroquinazoline-7-carboxamide], the inhibition at 0.412 µM came out at 94.9%.

Consider `CCOCCn1cnc2cc(C(=O)NO)ccc2c1=O` [Compound I-276, 3-(2-ethoxyethyl)-N-hydroxy-4-oxo-3,4-dihydroquinazoline-7-carboxamide], for which the inhibition at 0.412 µM is 88.1%.

Turning to `O=C(NO)c1ccc2ccn(CCN3CCCCC3)c(=O)c2c1` [Compound I-277, N-hydroxy-1-oxo-2-(2-piperidin-1-ylethyl)-1,2-dihydroisoquinoline-7-carboxamide], the inhibition at 0.412 µM amounted to 71.2%.

Consider `O=C(NO)c1ccc2c(=O)[nH]c(C(=O)NC3CCNCC3)nc2c1` [Compound I-278, N^7-hydroxy-4-oxo-N^2-piperidin-4-yl-3,4-dihydroquinazoline-2,7-dicarboxamide], for which the inhibition at 0.412 µM came to 26.2%.

With `O=C(NO)c1ccc2ccn(Cc3ccccn3)c(=O)c2c1` [Compound I-279, N-hydroxy-1-oxo-2-(pyridin-2-ylmethyl)-1,2-dihydroisoquinoline-7-carboxamide], the inhibition at 0.412 µM turned out to be 87.9%.

For `O=C(NO)c1ccc2c(=O)n(-c3ccc(Cl)cc3)c(=O)[nH]c2c1` [Compound I-280, 3-(4-chlorophenyl)-N-hydroxy-2,4-dioxo-1,2,3,4-tetrahydroquinazoline-7-carboxamide], the inhibition at 0.412 µM turned out to be 20.9%.

As for `COc1cccc(-c2cccc(Cn3cnc4ccc(C(=O)NO)cc4c3=O)c2)c1` [Compound I-281, N-hydroxy-3-[(3′-methoxybiphenyl-3-yl)methyl]-4-oxo-3,4-dihydroquinazoline-6-carboxamide], the inhibition at 0.37 µM turned out to be 90.8%.

As to `O=C(NO)c1ccc2ccn(CCOc3cccc(C(F)(F)F)c3)c(=O)c2c1` [Compound I-282, N-hydroxy-1-oxo-2-{2-[3-(trifluoromethyl)phenoxy]ethyl}-1,2-dihydroisoquinoline-7-carboxamide], the inhibition at 0.412 µM worked out at 95.5%.

Regarding `O=C(NO)c1ccc2nc[nH]c(=O)c2c1` [Compound I-283, N-hydroxy-4-oxo-3,4-dihydroquinazoline-6-carboxamide], the inhibition at 0.412 µM worked out at 63.3%.

With `O=C(NO)c1ccc2c(=O)[nH]cnc2c1` [Compound I-284, N-hydroxy-4-oxo-3,4-dihydroquinazoline-7-carboxamide], the inhibition at 0.412 µM is 76.8%.

In the case of `COc1ccc(CCn2ccc3ccc(C(=O)NO)cc3c2=O)cc1` [Compound I-285, N-hydroxy-2-[2-(4-methoxyphenyl)ethyl]-1-oxo-1,2-dihydroisoquinoline-7-carboxamide], the inhibition at 0.412 µM stood at 95.3%.
